Tested on: T47D pAKT
Experiment: Homogenous Time-Resolved Fluorescence (HTRF) Assay pAKT-T47D
Format: cell-based
Settings: Homo sapiens; T47D.1 cell line, PI3Kα H1047R mutation present, HTRF detection pAKT (S473), timepoint 1 hour
Method: Homogenous Time-Resolved Fluorescence (HTRF) Assay—pAKT-T47D
Compounds were assayed using homogeneous time-resolved fluorescence (HTRF).
Gibco RPMI 1640 Medium, no phenol red; Gibco RPMI 1640 Medium; Gibco Trypsin-EDTA (0.5%), no phenol red; Gibco DPBS; Trypan blue solution 0.4% (Corning); Avantor Seradigm Premium Grade Fetal Bovine Serum (FBS); Greiner 784080-384 well TC treated white plates; pAKT (Ser473) HTRF; Gibco Insulin, human recombinant, zinc solution; Gibco Recovery Cell Culture Freezing Medium; Countess II FL Automated Cell Counter (ThermoFisher); Countess II Slides (ThermoFisher); Microscope; and PHERAstar FSX Microplate Reader (BMG LABTECH, Inc.).
The scinamic cell line ID was T47D.1, the HTRF detection was pAKT (S473), a PI3Kα H1047R mutation was present, the seeding density was 5000, the timepoint was 1 hour, and the medium used was RPMI+10% FBS (no phenol red)+0.2 units/ml bovine insulin.
The procedure was as follows: • 1. Prepared ARP: • a. Stamped 12.5 nL from 10 mM source plate to destination plate using Echo. Sealed plate immediately and froze at −20° C. if it was not used on the same day. • b. If a frozen ARP was used, the plate was thawed and spun at 1000 rpm×1 min. • 2. Preparation of cells (adherent): • a. Aspirated media from cells. Washed cells with sterile 1×PBS. Aspirated PBS and added appropriate amount of Trypsin. • b. Once cells were fully trypsinized, added appropriate media to resuspend cells. Transferred cells to a 15 mL or 50 mL conical tube. • c. Counted cells on the Countess II Cell Counter. • 3. Plating of cells: • a. Prepared cells at appropriate plating density. Dispensed 12 μL of diluted cells per well of a Greiner 784080-384 well TC treated white plate using a Multidrop Combi to columns 1-23. Added 12 uL of appropriate phenol free media only to column 24. • b. Placed plates in 37° C. tissue culture incubator for appropriate treatment time (refer to “Assay” table). • 4. Prepared HTRF Lysis Buffer • a. Calculate the amount of HTRF lysis buffer master mix needed to perform the desired experiments plus any extra dead volume required for dispensing (4 μL required per well). Dilute the Blocking Reagent into 4× Lysis Buffer at a ratio of 1:25 (i.e. 0.1 mL Blocking Reagent Solution plus 2.4 mL 4× Lysis Buffer). • b. Add 4 uL Lysis buffer master mix to all wells with sample or DMSO. Centrifuge the plates for 1 minute at 1000 rpm. • c. Incubate at room temperature for 30 minutes. • 5. Prepared HTRF Antibody • a. Calculated the amount of HTRF antibody master mix needed to perform the desired experiments plus any extra dead volume required for dispensing ([…]). Eu Cryptate antibody and d2 antibody were added to detection buffer each at a ratio of 1:40 (i.e. 100 μL Eu Cryptate+100 μL d2 Cryptate+3800 μL detection buffer). • b. 4 μL of antibody master mix was added to each well including the media only column 24. • c. Centrifuged the plates for 1 minute at 1000 rpm. Placed lid on and created a “humidity chamber” by placing the plates into a ziplock bag with wet paper towels or something similar and incubated overnight at room temperature, keeping away from light.
• 6. Measured on the PHERAstar/Envision using the HTRF protocol. When plates were read, all wells were read.

`Cc1c([C@@H](Nc2nc3ccc(C#N)cc3[nH]2)C(C)C)oc2ccc(F)cc12` [Compound 1, (S)-2-((1-(5-fluoro-3-methylbenzofuran-2-yl)-2-methylpropyl)amino)-1H-benzo[d]imidazole-6-carbonitrile] and `Cc1c([C@@H](Nc2nc3ccc(C(N)=O)cc3[nH]2)C(C)C)oc2ccc(F)cc12` [Compound 2, (S)-2-((1-(5-fluoro-3-methylbenzofuran-2-yl)-2-methylpropyl)amino)-1H-benzo[d]imidazole-6-carboxamide] cannot be ordered by IC50: no less than 500 nM for the first, 200 to 500 nM for the second.

`Cc1c([C@H](Nc2nc3nc(N)ncc3[nH]2)C(F)(F)F)oc2ccc(F)cc12` [Compound 7b, (S)-N^8-(2,2,2-trifluoro-1-(5-fluoro-3-methylbenzofuran-2-yl)ethyl)-7H-purine-2,8-diamine] and `Cc1c([C@@H](Nc2nc3cc(S(C)(=O)=O)cnc3[nH]2)C(F)(F)F)oc2ccc(F)cc12` [Compound 5a, (R)-6-(methylsulfonyl)-N-(2,2,2-trifluoro-1-(5-fluoro-3-methylbenzofuran-2-yl)ethyl)-3H-imidazo[4,5-b]pyridin-2-amine] fall in the same range of IC50: 200 to 500 nM for the first, 200 to 500 nM for the second.

`Cc1c([C@@H](Nc2nc3ccc(S(C)(=O)=O)cc3[nH]2)C(C)C)oc2ccc(F)cc12` [Compound 4, (S)-N-(1-(5-fluoro-3-methylbenzofuran-2-yl)-2-methylpropyl)-6-(methylsulfonyl)-1H-benzo[d]imidazol-2-amine] and `Cc1c([C@@H](Nc2nc3ccc(S(N)(=O)=O)cc3[nH]2)C(C)C)oc2ccc(F)cc12` [Compound 3, (S)-2-((1-(5-fluoro-3-methylbenzofuran-2-yl)-2-methylpropyl)amino)-1H-benzo[d]imidazole-6-sulfonamide] cannot be ordered by IC50: less than 200 nM for the first, less than 200 nM for the second.

`Cc1c(C(Nc2nc3cc(S(C)(=O)=O)ccc3[nH]2)C(F)(F)F)oc2ccc(F)cc12` (racemic) [Compound 6b, 5-(methylsulfonyl)-N-(2,2,2-trifluoro-1-(5-fluoro-3-methylbenzofuran-2-yl)ethyl)-1H-benzo[d]imidazol-2-amine] showed an IC50 of 200 to 500 nM.
